Consider one molecule from patent US20250369982A1, “METHODS OF DETECTING DDR1 PHOSPHORYLATION” (IncendiaTherapeutics, Inc., priority 2022, published 2025).

For the series, the system named is T47D cells. Type of series: cell-based. The note with it: serum-starved T47D cells, 96 hours, compared to DMSO or IgG1 controls. The source says:
To measure proliferation, Hoechst staining was used to stain nuclei and CellMask™ (Thermo Fisher Scientific) Deep Red was used to stain cell membranes. To measure cell death, Annexin V was used to stain phosphatidylserine on the cell surface, a marker of apoptosis, and Incucyte® Cytotox Green (Sartorius) to stain cells with compromised membrane integrity, a marker of cell death.

As for `CC(=O)O[C@H]1C(=O)[C@@]2(C)[C@H]([C@H](OC(=O)c3ccccc3)[C@]3(O)C[C@H](OC(=O)[C@H](O)[C@@H](NC(=O)c4ccccc4)c4ccccc4)C(C)=C1C3(C)C)[C@]1(OC(C)=O)CO[C@@H]1C[C@@H]2O` [paclitaxel], the “effect on cell death (Annexin V, Cytotox Green)” value is on record as “increased cell death” and the “effect on cell proliferation (nuclei count, total cell area)” value is “decreased proliferation”.
